Results: patent US9833497B2, “Human originated EGF domain proteins and use of the same” (CHENGDU SOURCEBIO LIMITED-LIABILITY COMPANY, priority 2013, dated 2017)

Experiments:
Assay type in all cases: cell-based
Klebsiella pneumonia = test: MIC against Gram-negative bacteria: Klebsiella pneumonia; conditions: 5×10^5 CFU/mL; for MIC against K. pneumonia: Klebsiella pneumonia; for MIC (μg/mL) K. pneumonia / MIC: K. pneumonia
Procedure, shortened: (§1)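 Antibacterial activity of purified human EGF domain proteins: two-fold concentration series, triplicate wells, LB broth, 5×10^5 CFU/mL bacteria, 37° C shaking incubation. The lowest concentration without growth defines the MIC.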

Aeromonas hydrophila = test: MIC against Gram-negative bacteria: Aeromonas hydrophila; conditions: 5×10^5 CFU/mL; for MIC against A. hydrophila: Aeromonas hydrophila; for MIC (μg/mL) A. hydrophila / MIC: A. hydrophila
Procedure, shortened: as §1

E. coli BL21 = test: MIC against Gram-negative bacteria: E. coli BL21; conditions: E. coli BL21, 5×10^5 CFU/mL
Procedure, shortened: as §1

Moraxella catarrhalis = test: MIC against Gram-negative bacteria: Moraxella catarrhalis; conditions: 5×10^5 CFU/mL; for MIC against M. catarrhalis: Moraxella catarrhalis; for MIC (μg/mL) M. catarrhalis / MIC: M. catarrhalis
Procedure, shortened: as §1

Citrobacter diversus = test: MIC against Gram-negative bacteria: Citrobacter diversus; conditions: 5×10^5 CFU/mL; for MIC against C. diversus: Citrobacter diversus; for MIC (μg/mL) C. diversus / MIC: C. diversus
Procedure, shortened: as §1

Proteus mirabilis = test: MIC against Gram-negative bacteria: Proteus mirabilis; conditions: 5×10^5 CFU/mL; for MIC against P. mirabilis: Proteus mirabilis; for MIC (μg/mL) P. mirabilis / MIC: P. mirabilis
Procedure, shortened: as §1

Enterobacter cloacae = test: MIC against Gram-negative bacteria: Enterobacter cloacae; conditions: 5×10^5 CFU/mL; for MIC against E. cloacae: Enterobacter cloacae; for MIC (μg/mL) E. cloacae / MIC: E. cloacae
Procedure, shortened: as §1

Proteus vulgaris = test: MIC against Gram-negative bacteria: Proteus vulgaris; conditions: 5×10^5 CFU/mL; for MIC against P. vulgaris: Proteus vulgaris; for MIC (μg/mL) P. vulgaris / MIC: P. vulgaris
Procedure, shortened: as §1

Serratia marcescens = test: MIC against Gram-negative bacteria: Serratia marcescens; conditions: 5×10^5 CFU/mL; for MIC against S. marcescens: Serratia marcescens; for MIC (μg/mL) S. marcescens / MIC: S. marcescens
Procedure, shortened: as §1

E. coli DH5α = test: Antibacterial activity: MIC and growth curve against E. coli DH5α in 96-well plate; conditions: minimal inhibitory concentration against E. coli DH5α; 96-well plate, 5×10^5 CFU/mL, 37° C., judged after 8 h
Procedure, shortened: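 Log-phase bacteria (OD600 ~0.5) resuspended in LB at 5×10^5 CFU/mL, exposed to recombinant protein at 50, 25, 12.5 μg/mL final in triplicate, 37 °C shaking at 175 rpm. OD600 read every 30 min; MIC is lowest concentration showing no growth.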

Pseudomonas aeruginosa = test: MIC against Gram-negative bacteria: Pseudomonas aeruginosa; conditions: 5×10^5 CFU/mL; for MIC against P. aeruginosa: Pseudomonas aeruginosa; for MIC (μg/mL) P. aeruginosa / MIC: P. aeruginosa
Procedure, shortened: as §1

| Substance | MIC (μg/mL) K. pneumonia (Klebsiella pneumonia; 10 h cultivation at 37° C.) | MIC (μg/mL) A. hydrophila (Aeromonas hydrophila; 10 h cultivation at 37° C.) | MIC (μg/mL) E. coli BL21 (E. coli BL21; 10 h cultivation at 37° C.) | MIC (μg/mL) M. catarrhalis (Moraxella catarrhalis; 10 h cultivation at 37° C.) | MIC (μg/mL) C. diversus (Citrobacter diversus; 10 h cultivation at 37° C.) | MIC (μg/mL) P. mirabilis (Proteus mirabilis; 10 h cultivation at 37° C.) | MIC (μg/mL) E. cloacae (Enterobacter cloacae; 10 h cultivation at 37° C.) | MIC (μg/mL) P. vulgaris (Proteus vulgaris; 10 h cultivation at 37° C.) | MIC (μg/mL) S. marcescens (Serratia marcescens; 10 h cultivation at 37° C.) | MIC (E. coli DH5α) | MIC (μg/mL) P. aeruginosa (Pseudomonas aeruginosa; 10 h cultivation at 37° C.) | MIC (Klebsiella pneumonia; 10 h cultivation at 37° C.) | MIC (Aeromonas hydrophila; 10 h cultivation at 37° C.) | MIC (E. coli BL21; 10 h cultivation at 37° C.) | MIC (Moraxella catarrhalis; 10 h cultivation at 37° C.) | MIC (Citrobacter diversus; 10 h cultivation at 37° C.) | MIC (Proteus mirabilis; 10 h cultivation at 37° C.) | MIC (Enterobacter cloacae; 10 h cultivation at 37° C.) | MIC (Proteus vulgaris; 10 h cultivation at 37° C.) | MIC (Serratia marcescens; 10 h cultivation at 37° C.) | other results |
| --- | --- | --- | --- | --- | --- | --- | --- | --- | --- | --- | --- | --- | --- | --- | --- | --- | --- | --- | --- | --- | --- |
| PRT216 (DIDECTAGTHNCRADQVCINLRGSFACQCPPGYQKRGEQCV; listed as Homo sapiens) | 50 µg/mL | 50 µg/mL | 12.5 µg/mL | 50 µg/mL | 12.5 µg/mL | 25 µg/mL | 12.5 µg/mL | 12.5 µg/mL | 25 µg/mL | 12.5 µg/mL | 12.5 µg/mL | – | – | – | – | – | – | – | – | – | – |
| PRT1358 (SQLACPSDCNDQGKCVNGVCICFEGYAGADCS; listed as Homo sapiens) | – | – | – | – | – | – | – | – | – | 50 µg/mL | – | – | – | – | – | – | – | – | – | – | MIC against K. pneumonia (Klebsiella pneumonia; 10 h cultivation at 37° C.): 12.5 µg/mL; MIC against A. hydrophila (Aeromonas hydrophila; 10 h cultivation at 37° C.): 25 µg/mL; MIC against E. coli BL21 (E. coli BL21; 10 h cultivation at 37° C.): 12.5 µg/mL; MIC against M. catarrhalis (Moraxella catarrhalis; 10 h cultivation at 37° C.): 25 µg/mL; MIC against C. diversus (Citrobacter diversus; 10 h cultivation at 37° C.): 12.5 µg/mL; MIC against P. mirabilis (Proteus mirabilis; 10 h cultivation at 37° C.): 12.5 µg/mL; MIC against E. cloacae (Enterobacter cloacae; 10 h cultivation at 37° C.): 12.5 µg/mL; MIC against P. vulgaris (Proteus vulgaris; 10 h cultivation at 37° C.): 25 µg/mL; MIC against S. marcescens (Serratia marcescens; 10 h cultivation at 37° C.): 12.5 µg/mL; MIC against P. aeruginosa (Pseudomonas aeruginosa; 10 h cultivation at 37° C.): 50 µg/mL |
| PRT1316 (ELPVCQELRCPQNTQCSAEAPSCRCLPGYTQQGSE; listed as Homo sapiens) | – | – | – | – | – | – | – | – | – | 50 µg/mL | – | – | – | – | – | – | – | – | – | – | MIC against K. pneumonia (Klebsiella pneumonia; 96-well plate, 37° C., 10 h): 25 µg/mL; MIC against A. hydrophila (Aeromonas hydrophila; 96-well plate, 37° C., 10 h): 50 µg/mL; MIC against E. coli BL21 (E. coli BL21; 96-well plate, 37° C., 10 h): 12.5 µg/mL; MIC against M. catarrhalis (Moraxella catarrhalis; 96-well plate, 37° C., 10 h): 50 µg/mL; MIC against C. diversus (Citrobacter diversus; 96-well plate, 37° C., 10 h): 12.5 µg/mL; MIC against P. mirabilis (Proteus mirabilis; 96-well plate, 37° C., 10 h): 12.5 µg/mL; MIC against E. cloacae (Enterobacter cloacae; 96-well plate, 37° C., 10 h): 12.5 µg/mL; MIC against P. vulgaris (Proteus vulgaris; 96-well plate, 37° C., 10 h): 50 µg/mL; MIC against S. marcescens (Serratia marcescens; 96-well plate, 37° C., 10 h): 12.5 µg/mL; MIC against P. aeruginosa (Pseudomonas aeruginosa; 96-well plate, 37° C., 10 h): 50 µg/mL |
| PRT423 (QPNTCKDNGPCKQVCSTVGGSAICSCFPGYAIMADGVSCE; listed as Homo sapiens) | – | – | – | – | – | – | – | – | – | 12.5 µg/mL | – | 25 µg/mL | 25 µg/mL | 25 µg/mL | 25 µg/mL | 12.5 µg/mL | 50 µg/mL | 50 µg/mL | 25 µg/mL | 12.5 µg/mL | MIC (Pseudomonas aeruginosa; 10 h cultivation at 37° C.): 12.5 µg/mL |
| PRT414 (DIDECESGIHNCLPDFICQNTLGSFRCRPKLQCKSGFIQDALGNCI; listed as Homo sapiens) | – | – | – | – | – | – | – | – | – | 12.5 µg/mL | – | 12.5 µg/mL | 25 µg/mL | 12.5 µg/mL | 25 µg/mL | 12.5 µg/mL | 12.5 µg/mL | 12.5 µg/mL | 25 µg/mL | 50 µg/mL | MIC (Pseudomonas aeruginosa; 10 h cultivation at 37° C.): 12.5 µg/mL |
| PRT770 (FRDPCDPNPCQNDGICVNVKGMASCRCISGHAFFYTGERCQ; listed as Homo sapiens) | 12.5 µg/mL | 25 µg/mL | 12.5 µg/mL | 25 µg/mL | 12.5 µg/mL | 50 µg/mL | 50 µg/mL | 12.5 µg/mL | 50 µg/mL | 50 µg/mL | 50 µg/mL | – | – | – | – | – | – | – | – | – | – |
